# ChEMBL document CHEMBL3046234, “Synthesis and pharmacological evaluation of some new naphthol derived aryloxy derivatives as cognition enhancers” (2012)
# Legend:
# [1] = molecular target: T1, Acetylcholinesterase (Mus musculus) (UniProt P21836); assay: Inhibition of AChE in Mus musculus (mouse) brain homogenate at 10 uM after 5 min by Ellman method relative to control; type: tissue-based
# T1 sequence (whole entry): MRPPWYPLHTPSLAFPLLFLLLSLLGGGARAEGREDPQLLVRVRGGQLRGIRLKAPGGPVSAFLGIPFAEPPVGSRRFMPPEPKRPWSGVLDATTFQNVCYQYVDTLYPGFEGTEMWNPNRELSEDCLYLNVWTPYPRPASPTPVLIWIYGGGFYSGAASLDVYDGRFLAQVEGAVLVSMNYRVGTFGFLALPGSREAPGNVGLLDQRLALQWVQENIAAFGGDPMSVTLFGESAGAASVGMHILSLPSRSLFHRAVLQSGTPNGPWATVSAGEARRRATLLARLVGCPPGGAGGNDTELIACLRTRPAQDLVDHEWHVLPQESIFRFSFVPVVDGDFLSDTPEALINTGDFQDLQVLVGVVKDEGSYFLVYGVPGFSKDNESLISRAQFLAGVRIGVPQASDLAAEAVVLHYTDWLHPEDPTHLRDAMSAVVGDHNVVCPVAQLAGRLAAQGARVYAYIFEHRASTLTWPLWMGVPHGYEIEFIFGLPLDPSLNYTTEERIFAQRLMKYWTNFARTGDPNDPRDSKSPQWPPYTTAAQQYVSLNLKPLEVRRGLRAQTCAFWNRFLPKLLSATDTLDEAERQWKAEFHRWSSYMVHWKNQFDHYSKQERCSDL
# [2] = molecular target: T1, Acetylcholinesterase (Mus musculus); assay: Inhibition of AChE in Mus musculus (mouse) brain homogenate assessed as residual activity measuring acetylthiocholine iodide hydrolysis per mg protein at 10 uM after 5 min by Ellman method; type: tissue-based
# Mus musculus [3] = assay: Antiamnesic activity in Mus musculus (mouse) assessed as retention of memory at 3 mg/kg, ip measured after 24 hr by elevated plus maze test; type: functional; details: route intraperitoneal
# Mus musculus [4] = assay: Antiamnesic activity in Mus musculus (mouse) assessed as retention of memory at 1 mg/kg, ip measured after 24 hr by elevated plus maze test; type: functional; details: route intraperitoneal
SMILES,Imax [1] [%],Activity [2] [nmol/min],Activity (Mus musculus [3]) [%],Activity (Mus musculus [4]) [%]
O=C(COc1cccc2ccccc12)N1CCCC1,73.9,29.7,68.44,51.59
O=C(COc1cccc2ccccc12)N1CCOCC1,77.4,25.8,81.65,62.69
Nc1cccc2c(OCC(=O)N3CCOCC3)cccc12,51,55.9,75.35,43.26
CN1CCN(C(=O)COc2cccc3ccccc23)CC1,86.5,15.4,86.18,73.76
CN(C)C(=O)COc1cccc2ccccc12,33.1,76.2,77.78,52.92
Nc1cccc2c(OCC(=O)N3CCCC3)cccc12,31.1,78.5,74.47,69.11
NC(=O)CN1CCCC1=O [PIRACETAM],,,46.88,32.47
CCN(CC)CCOc1cccc2c(NC(=O)C(C)C)cccc12,26.3,56,28.1,19.28
O=C(COc1cccc2ccccc12)N1CCCCC1,26.8,83.5,72.94,63
CC(C)C(=O)Nc1cccc2c(OCCN3CCOCC3)cccc12,22.3,59,25.43,22.23
